# Measured values: the kinase profiling compilation of Christmann-Franck et al. (2016)
# Assays:
# Assay in all cases: radiometric filter-binding kinase assay, Kinase HotSpot
# Conditions in all cases: compound 0.5 µM; ATP 10 µM
# [1] = biological target: RET (human) (UniProt P07949)
# [2] = biological target: EPHB4 (human) (UniProt P54760)
# [3] = biological target: SRPK3 (human) (UniProt Q9UPE1)
# [4] = biological target: BTK (human) (UniProt Q06187)
# [5] = biological target: CLK1 (human) (UniProt P49759)
# [6] = biological target: PASK (human) (UniProt Q96RG2)
# [7] = biological target: ACVR1 (human) (UniProt Q04771)
# [8] = biological target: LCK (human) (UniProt P06239)
# [9] = biological target: MAP3K14 (human) (UniProt Q99558)
# [10] = biological target: PRKCH (human) (UniProt P24723)
# [11] = biological target: PAK2 (human) (UniProt Q13177)
# [12] = biological target: CDC42BPB (human) (UniProt Q9Y5S2)
# [13] = biological target: PIM1 (human) (UniProt P11309)
# [14] = biological target: MYLK2 (human) (UniProt Q9H1R3)
# [15] = biological target: RPS6KA4 KD2 (human) (UniProt O75676)
# [16] = biological target: CSNK1E (human) (UniProt P49674)
# [17] = biological target: NEK11 (human) (UniProt Q8NG66)
# [18] = biological target: PRKCZ (human) (UniProt Q05513)
# [19] = biological target: NEK9 (human) (UniProt Q8TD19)
# [20] = biological target: PHKG2 (human) (UniProt P15735)
# [21] = biological target: MKNK2 (human) (UniProt Q9HBH9)
# [22] = biological target: DYRK1B (human) (UniProt Q9Y463)
# [23] = biological target: RPS6KB2 (human) (UniProt Q9UBS0)
# [24] = biological target: FLT3 (human) (UniProt P36888)
# [25] = biological target: JAK3 JH1 JH2 (human) (UniProt P52333)
# [26] = biological target: PRKCA (human) (UniProt P17252)
# [27] = biological target: PTK6 (human) (UniProt Q13882)
# [28] = biological target: ACVRL1 (human) (UniProt P37023)
# [29] = biological target: INSR (human) (UniProt P06213)
# [30] = biological target: FES (human) (UniProt P07332)
# [31] = biological target: CDK4 CCND3 (human) (UniProt P30281+P11802)
# [32] = biological target: STK25 (human) (UniProt O00506)
# [33] = biological target: DDR2 (human) (UniProt Q16832)
# [34] = biological target: MAPK13 (human) (UniProt O15264)
# [35] = biological target: PRKCE (human) (UniProt Q02156)
# [36] = biological target: GSG2 (human) (UniProt Q8TF76)
# [37] = biological target: PLK1 (human) (UniProt P53350)
# [38] = biological target: ULK2 (human) (UniProt Q8IYT8)
# [39] = biological target: STK17A (human) (UniProt Q9UEE5)
# [40] = biological target: DCLK2 (human) (UniProt Q8N568)
# [41] = biological target: CAMKK1 (human) (UniProt Q8N5S9)
# [42] = biological target: BMX (human) (UniProt P51813)
# ULK2 (human), sequence (Q8IYT8 whole entry, looked up): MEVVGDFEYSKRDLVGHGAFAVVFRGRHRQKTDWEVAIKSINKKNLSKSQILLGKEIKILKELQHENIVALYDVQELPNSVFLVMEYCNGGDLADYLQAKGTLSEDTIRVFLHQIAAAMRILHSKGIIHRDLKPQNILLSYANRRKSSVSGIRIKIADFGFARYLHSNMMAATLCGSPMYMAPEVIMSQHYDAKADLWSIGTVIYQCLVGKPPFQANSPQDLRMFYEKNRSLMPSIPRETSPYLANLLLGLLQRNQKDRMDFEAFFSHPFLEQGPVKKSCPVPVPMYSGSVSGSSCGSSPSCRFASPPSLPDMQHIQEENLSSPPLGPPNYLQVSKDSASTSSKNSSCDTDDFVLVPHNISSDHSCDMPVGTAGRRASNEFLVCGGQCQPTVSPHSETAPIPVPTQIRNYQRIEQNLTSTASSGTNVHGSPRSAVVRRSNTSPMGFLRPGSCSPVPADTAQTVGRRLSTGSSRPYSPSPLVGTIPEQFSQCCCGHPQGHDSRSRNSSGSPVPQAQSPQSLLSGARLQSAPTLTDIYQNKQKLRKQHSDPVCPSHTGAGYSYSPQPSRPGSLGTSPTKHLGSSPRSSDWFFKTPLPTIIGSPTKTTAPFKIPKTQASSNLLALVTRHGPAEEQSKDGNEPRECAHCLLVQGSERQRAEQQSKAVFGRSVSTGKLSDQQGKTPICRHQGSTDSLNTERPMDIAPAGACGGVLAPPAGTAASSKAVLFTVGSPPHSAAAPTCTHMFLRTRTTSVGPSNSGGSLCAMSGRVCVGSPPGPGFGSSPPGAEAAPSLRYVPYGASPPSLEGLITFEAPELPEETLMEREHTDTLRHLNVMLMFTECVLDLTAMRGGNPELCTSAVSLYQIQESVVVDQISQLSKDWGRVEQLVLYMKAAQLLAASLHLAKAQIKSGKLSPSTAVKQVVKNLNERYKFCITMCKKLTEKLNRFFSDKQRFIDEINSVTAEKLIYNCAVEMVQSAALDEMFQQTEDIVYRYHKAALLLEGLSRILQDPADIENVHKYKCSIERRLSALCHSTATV
# CDK4 CCND3 (human), sequence (P11802 whole entry, looked up): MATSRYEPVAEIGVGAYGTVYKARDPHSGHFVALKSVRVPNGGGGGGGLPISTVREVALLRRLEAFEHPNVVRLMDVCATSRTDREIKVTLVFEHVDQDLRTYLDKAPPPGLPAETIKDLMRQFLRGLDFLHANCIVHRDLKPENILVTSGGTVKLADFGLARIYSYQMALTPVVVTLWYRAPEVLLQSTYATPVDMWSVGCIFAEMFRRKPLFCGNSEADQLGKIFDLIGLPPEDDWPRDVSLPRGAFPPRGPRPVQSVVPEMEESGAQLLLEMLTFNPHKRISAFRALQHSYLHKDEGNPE
# CDK4 CCND3 (human), sequence (P30281 whole entry, looked up): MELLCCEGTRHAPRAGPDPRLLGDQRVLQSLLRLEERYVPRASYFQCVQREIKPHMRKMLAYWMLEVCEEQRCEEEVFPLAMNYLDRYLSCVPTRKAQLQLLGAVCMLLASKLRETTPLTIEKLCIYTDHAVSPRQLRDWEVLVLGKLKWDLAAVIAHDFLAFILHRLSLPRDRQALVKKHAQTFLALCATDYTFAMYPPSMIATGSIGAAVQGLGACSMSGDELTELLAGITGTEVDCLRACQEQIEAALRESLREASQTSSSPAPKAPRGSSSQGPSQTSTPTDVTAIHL
# PTK6 (human), sequence (Q13882 whole entry, looked up): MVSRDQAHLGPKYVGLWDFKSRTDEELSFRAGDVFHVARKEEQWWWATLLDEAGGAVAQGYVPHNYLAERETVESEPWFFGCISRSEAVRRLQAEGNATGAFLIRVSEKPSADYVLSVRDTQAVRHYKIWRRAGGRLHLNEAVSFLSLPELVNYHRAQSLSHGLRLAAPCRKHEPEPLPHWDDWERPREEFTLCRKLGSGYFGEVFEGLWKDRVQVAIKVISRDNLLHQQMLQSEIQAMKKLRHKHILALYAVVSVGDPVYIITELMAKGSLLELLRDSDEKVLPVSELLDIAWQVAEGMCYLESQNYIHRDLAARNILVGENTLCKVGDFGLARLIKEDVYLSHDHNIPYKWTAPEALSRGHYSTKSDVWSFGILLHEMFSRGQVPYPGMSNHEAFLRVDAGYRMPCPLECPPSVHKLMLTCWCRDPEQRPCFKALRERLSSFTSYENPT
# LCK (human), sequence (P06239 whole entry, looked up): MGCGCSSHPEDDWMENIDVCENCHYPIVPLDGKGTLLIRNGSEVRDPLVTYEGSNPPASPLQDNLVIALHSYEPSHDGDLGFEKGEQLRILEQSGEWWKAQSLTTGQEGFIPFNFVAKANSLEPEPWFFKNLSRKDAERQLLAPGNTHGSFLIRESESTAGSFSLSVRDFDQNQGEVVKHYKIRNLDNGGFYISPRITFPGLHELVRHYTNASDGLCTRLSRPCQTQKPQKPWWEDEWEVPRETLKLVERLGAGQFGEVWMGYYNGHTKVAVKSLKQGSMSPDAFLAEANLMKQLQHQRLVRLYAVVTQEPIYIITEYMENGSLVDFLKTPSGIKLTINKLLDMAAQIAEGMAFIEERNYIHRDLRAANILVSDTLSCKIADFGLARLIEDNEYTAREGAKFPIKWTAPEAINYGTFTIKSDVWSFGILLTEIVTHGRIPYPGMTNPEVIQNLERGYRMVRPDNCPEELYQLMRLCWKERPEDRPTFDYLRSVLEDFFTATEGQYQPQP
# CAMKK1 (human), sequence (Q8N5S9 whole entry, looked up): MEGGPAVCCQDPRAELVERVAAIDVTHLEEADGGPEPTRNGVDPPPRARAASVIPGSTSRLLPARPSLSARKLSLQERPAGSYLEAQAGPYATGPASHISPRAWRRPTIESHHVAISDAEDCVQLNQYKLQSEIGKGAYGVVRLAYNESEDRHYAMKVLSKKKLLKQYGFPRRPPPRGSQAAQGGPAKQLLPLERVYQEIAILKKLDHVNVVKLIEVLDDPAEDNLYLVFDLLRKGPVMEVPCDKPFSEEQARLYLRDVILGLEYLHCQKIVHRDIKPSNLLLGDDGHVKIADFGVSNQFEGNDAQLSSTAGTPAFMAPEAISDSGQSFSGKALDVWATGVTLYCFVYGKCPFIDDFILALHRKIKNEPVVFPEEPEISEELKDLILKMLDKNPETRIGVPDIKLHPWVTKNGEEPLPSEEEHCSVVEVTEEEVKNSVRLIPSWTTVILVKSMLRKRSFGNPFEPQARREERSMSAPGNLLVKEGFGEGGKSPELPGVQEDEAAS
# RPS6KA4 KD2 (human), sequence (O75676 whole entry, looked up): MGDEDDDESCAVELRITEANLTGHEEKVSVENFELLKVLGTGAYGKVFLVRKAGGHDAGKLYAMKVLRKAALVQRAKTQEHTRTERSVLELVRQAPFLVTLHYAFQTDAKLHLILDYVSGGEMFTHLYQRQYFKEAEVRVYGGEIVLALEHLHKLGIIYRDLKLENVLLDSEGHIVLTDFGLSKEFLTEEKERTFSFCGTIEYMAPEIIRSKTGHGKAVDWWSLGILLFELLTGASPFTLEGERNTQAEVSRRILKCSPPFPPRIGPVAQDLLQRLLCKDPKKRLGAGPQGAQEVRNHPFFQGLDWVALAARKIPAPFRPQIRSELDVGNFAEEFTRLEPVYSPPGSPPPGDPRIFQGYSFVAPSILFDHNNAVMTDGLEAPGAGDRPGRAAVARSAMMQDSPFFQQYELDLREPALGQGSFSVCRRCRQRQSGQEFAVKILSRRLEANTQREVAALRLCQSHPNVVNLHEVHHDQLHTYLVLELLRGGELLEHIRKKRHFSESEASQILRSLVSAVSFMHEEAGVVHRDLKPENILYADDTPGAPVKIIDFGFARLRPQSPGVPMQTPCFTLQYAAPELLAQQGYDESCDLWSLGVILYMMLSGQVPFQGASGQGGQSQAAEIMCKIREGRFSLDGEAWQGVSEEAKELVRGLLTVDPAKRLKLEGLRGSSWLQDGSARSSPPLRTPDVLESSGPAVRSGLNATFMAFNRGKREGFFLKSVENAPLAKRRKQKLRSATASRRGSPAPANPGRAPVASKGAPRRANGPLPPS
# GSG2 (human), sequence (Q8TF76 whole entry, looked up): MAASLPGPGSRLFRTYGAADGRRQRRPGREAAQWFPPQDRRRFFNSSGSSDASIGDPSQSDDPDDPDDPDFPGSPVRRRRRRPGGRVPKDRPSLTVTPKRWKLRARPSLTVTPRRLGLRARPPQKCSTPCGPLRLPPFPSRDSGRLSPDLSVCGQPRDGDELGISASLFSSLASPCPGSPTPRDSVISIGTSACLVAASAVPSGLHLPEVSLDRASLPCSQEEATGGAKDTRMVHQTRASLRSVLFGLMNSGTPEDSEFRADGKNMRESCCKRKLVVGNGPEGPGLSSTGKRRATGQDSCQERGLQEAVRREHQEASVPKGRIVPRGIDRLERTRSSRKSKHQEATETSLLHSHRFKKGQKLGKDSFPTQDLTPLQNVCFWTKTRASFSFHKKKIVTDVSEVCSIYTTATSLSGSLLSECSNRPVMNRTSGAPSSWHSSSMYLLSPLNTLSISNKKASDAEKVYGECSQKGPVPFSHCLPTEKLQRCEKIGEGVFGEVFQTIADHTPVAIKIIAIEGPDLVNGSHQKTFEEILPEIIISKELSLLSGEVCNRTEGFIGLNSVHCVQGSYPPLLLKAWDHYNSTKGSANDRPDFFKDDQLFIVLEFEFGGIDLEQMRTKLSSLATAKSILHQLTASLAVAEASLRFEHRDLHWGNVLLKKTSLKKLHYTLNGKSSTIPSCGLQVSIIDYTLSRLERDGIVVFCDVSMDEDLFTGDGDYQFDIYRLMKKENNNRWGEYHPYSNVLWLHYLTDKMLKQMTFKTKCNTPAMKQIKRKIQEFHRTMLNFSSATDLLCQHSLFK
# PIM1 (human), sequence (P11309 whole entry, looked up): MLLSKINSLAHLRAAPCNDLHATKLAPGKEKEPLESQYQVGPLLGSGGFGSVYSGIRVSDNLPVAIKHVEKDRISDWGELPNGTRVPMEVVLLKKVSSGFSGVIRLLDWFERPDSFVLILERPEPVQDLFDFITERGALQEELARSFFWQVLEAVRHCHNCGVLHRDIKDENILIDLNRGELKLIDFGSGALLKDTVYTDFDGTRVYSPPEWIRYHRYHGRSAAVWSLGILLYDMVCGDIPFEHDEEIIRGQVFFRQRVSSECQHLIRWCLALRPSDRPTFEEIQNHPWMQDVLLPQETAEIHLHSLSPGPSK
smiles,measurement,setting,value
COc1ccc(-c2cnc3c(-c4ccsc4)cnn3c2)cc1,residual activity,[1],92%
same,residual activity,[2],87.5%
same,residual activity,[3],94.1%
same,residual activity,[4],97.1%
same,residual activity,[5],82.8%
same,residual activity,[6],79.5%
same,residual activity,[7],91.1%
same,residual activity,[8],81.6%
same,residual activity,[9],106%
same,residual activity,[10],111%
same,residual activity,[11],79.1%
same,residual activity,[12],83.4%
same,residual activity,[13],97.5%
same,residual activity,[14],75.6%
same,residual activity,[15],98.7%
same,residual activity,[16],86.3%
same,residual activity,[17],93.3%
same,residual activity,[18],107%
same,residual activity,[19],90.3%
same,residual activity,[20],92.3%
same,residual activity,[21],37.5%
same,residual activity,[22],78.9%
same,residual activity,[23],100%
same,residual activity,[24],11.1%
same,residual activity,[25],98.5%
same,residual activity,[26],101%
same,residual activity,[27],77.5%
same,residual activity,[28],76.4%
same,residual activity,[29],92.5%
same,residual activity,[30],98.2%
same,residual activity,[31],82.9%
same,residual activity,[32],102%
same,residual activity,[33],98.2%
same,residual activity,[34],93.5%
same,residual activity,[35],103%
same,residual activity,[36],77.2%
same,residual activity,[37],101%
same,residual activity,[38],103%
same,residual activity,[39],91.6%
same,residual activity,[40],97.5%
same,residual activity,[41],79.2%
same,residual activity,[42],90.6%
O=c1cc(-c2cccc3c2Sc2ccccc2S3)oc(N2CCOCC2)c1,residual activity,[1],82.4%
same,residual activity,[2],94.3%
same,residual activity,[3],99.6%
same,residual activity,[4],104%
same,residual activity,[5],103%
same,residual activity,[6],101%
same,residual activity,[7],97.5%
same,residual activity,[8],98.1%
same,residual activity,[9],94.9%
same,residual activity,[10],99.7%
same,residual activity,[11],100%
same,residual activity,[12],103%
same,residual activity,[13],77.6%
same,residual activity,[14],97.4%
same,residual activity,[15],88.1%
same,residual activity,[16],104%
same,residual activity,[17],88.5%
same,residual activity,[18],102%
same,residual activity,[19],110%
same,residual activity,[20],98.6%
same,residual activity,[21],117%
same,residual activity,[22],101%
same,residual activity,[23],102%
same,residual activity,[24],98.4%
same,residual activity,[25],108%
same,residual activity,[26],80.3%
same,residual activity,[27],90.6%
same,residual activity,[28],99.9%
same,residual activity,[29],105%
same,residual activity,[30],104%
same,residual activity,[31],99.2%
same,residual activity,[32],99.6%
same,residual activity,[33],99.2%
same,residual activity,[34],101%
same,residual activity,[35],109%
same,residual activity,[36],106%
same,residual activity,[37],102%
same,residual activity,[38],123%
same,residual activity,[39],98.2%
same,residual activity,[40],106%
same,residual activity,[41],112%
same,residual activity,[42],112%
Cc1ccc(NC(=O)c2ccc(CN3CCN(C)CC3)cc2)cc1Nc1nc(-c2cccnc2)cs1,residual activity,[1],96.4%
same,residual activity,[2],97.3%
same,residual activity,[3],102%
same,residual activity,[4],99.6%
same,residual activity,[5],101%
same,residual activity,[6],103%
same,residual activity,[7],101%
same,residual activity,[8],7.63%
same,residual activity,[9],91%
same,residual activity,[10],102%
same,residual activity,[11],111%
same,residual activity,[12],98.1%
same,residual activity,[13],86.4%
same,residual activity,[14],98.7%
same,residual activity,[15],101%
same,residual activity,[16],98.8%
same,residual activity,[17],95.1%
same,residual activity,[18],103%
same,residual activity,[19],98.6%
same,residual activity,[20],69.1%
same,residual activity,[21],103%
same,residual activity,[22],95.7%
same,residual activity,[23],101%
same,residual activity,[24],84.4%
same,residual activity,[25],93.7%
same,residual activity,[26],110%
same,residual activity,[27],79.2%
same,residual activity,[28],103%
same,residual activity,[29],99%
same,residual activity,[30],105%
same,residual activity,[31],115%
same,residual activity,[32],95.5%
same,residual activity,[33],36.4%
same,residual activity,[34],101%
same,residual activity,[35],100%
same,residual activity,[36],100%
same,residual activity,[37],101%
same,residual activity,[38],103%
same,residual activity,[39],104%
same,residual activity,[40],102%
same,residual activity,[41],97.6%
same,residual activity,[42],104%
NC(=O)c1ccc(N(C(N)=O)c2c(F)cccc2F)nc1-c1ccc(F)cc1F,residual activity,[1],93.1%
same,residual activity,[2],83.9%
same,residual activity,[3],105%
same,residual activity,[4],98.2%
same,residual activity,[5],108%
same,residual activity,[6],103%
same,residual activity,[7],105%
same,residual activity,[8],86.3%
same,residual activity,[9],114%
same,residual activity,[10],112%
same,residual activity,[11],101%
same,residual activity,[12],96.5%
same,residual activity,[13],98.8%
same,residual activity,[14],101%
same,residual activity,[15],99%
same,residual activity,[16],98.2%
same,residual activity,[17],92.9%
same,residual activity,[18],89.9%
same,residual activity,[19],104%
same,residual activity,[20],93.1%
same,residual activity,[21],101%
same,residual activity,[22],97.1%
same,residual activity,[23],100%
same,residual activity,[24],97.2%
same,residual activity,[25],95.7%
same,residual activity,[26],86%
same,residual activity,[27],98.7%
same,residual activity,[28],99.3%
same,residual activity,[29],104%
same,residual activity,[30],99%
same,residual activity,[31],98.4%
same,residual activity,[32],97.1%
same,residual activity,[33],100%
same,residual activity,[34],94%
same,residual activity,[35],101%
same,residual activity,[36],81.3%
same,residual activity,[37],95.1%
same,residual activity,[38],101%
same,residual activity,[39],100%
same,residual activity,[40],97.5%
same,residual activity,[41],98.9%
same,residual activity,[42],108%
